From article PMC5365645, “Preclinical Pharmacokinetics and Pharmacodynamic Target of SCY-078, a First-in-Class Orally Active Antifungal Glucan Synthesis Inhibitor, in Murine Models of Disseminated Candidiasis” (Antimicrobial Agents and Chemotherapy, 2017)
Converted amounts (≈) assume the structure as drawn. “And” between values parts separate entries of the source, which are not always exact repeats. Equal entries are not always repeated.

Columns and labels:
[1] = In vitro metabolic stability in hepatic microsomes; assay type: in vitro ADME; conditions: for remaining at 0.5 h, 1 µM: read-out: % remaining after 30 min
Procedure: (§1) The metabolic stability of SCY-078 was assessed after incubation with mouse, rat, dog, and human liver microsomes (Table 2) ([10]). […] The half-lives in rodent, dog, and human liver microsomes were ≥125, ≥29, and ≥42 min, respectively.
(§2) The metabolic stability of SCY-078 was evaluated with male and female mouse, male rat, male and female dog, and mixed-gender human liver microsomes (XenoTech, Lenexa, KS). SCY-078 (1 μM) was incubated with pooled liver microsomes (0.5 mg protein/ml) for 0, 5, 10, 20, and 30 min at 37°C in the presence of NADPH. Aliquots were taken at each sampling time point and extracted with 5 volumes of ice-cold acetonitrile containing the internal standard (d9-SCY-078, 125 ng/ml). Supernatants from the incubation mixtures were analyzed for the parent compound by LC-MS/MS according to the conditions described below. The metabolic competency of microsomal preparations was established using the control compounds 7-ethoxycoumarin, propranolol, and verapamil. The in vitro intrinsic clearance (CLint), the CLint scaled to the in vivo intrinsic clearance (CL′int), and the half-life were determined for SCY-078 incubated with microsomes from each species.

[2] = test system: C. albicans CLY724; assay: Single delayed-dose treatment model of disseminated candidiasis; assay type: in vivo, mice; conditions: single dose 16 h after infection, tissue burden 96 h after treatment, regression analysis
[3] = test system: C. albicans; assay: Fractionated delayed-dose treatment model of disseminated candidiasis
Procedure: The fractionated delayed treatment model was used to compare the efficacy of SCY-078 when administered as divided doses of either two half doses or four quarter doses, relative to the outcome of a single dose. The total doses were 12.5, 25, and 50 mg/kg delivered by bolus intraperitoneal injection. Divided doses were administered at either 0 and 48 h or at 0, 24, 48, and 72 h relative to the single dose. […] Caspofungin and fluconazole were not evaluated in this model.
In the fractionated delayed-dose treatment model, SCY-078 was administered as divided doses of either two half doses or four quarter doses relative to the single dose. The total doses were 12.5, 25, and 50 mg/kg administered as a suspension in a “fit-for-purpose” formulation. Divided doses were administered at either 0 or 48 h or at 0, 24, 48, and 72 h relative to the single dose for the half and quarter doses, respectively. Caspofungin and fluconazole were not evaluated in this model.

[4] = test system: C. albicans CLY18600; assay: Single delayed-dose treatment model of disseminated candidiasis; assay type: in vivo, mice; conditions: single dose 16 h after infection, tissue burden 96 h after treatment, regression analysis
[5] = test system: C. albicans MY1055; assay: Immediate treatment murine model of disseminated candidiasis
[6] = as above; conditions: DBA/2N, mouse, plasma, po
[7] = test system: C. parapsilosis isolate CP 20519.069; set-up: method as in PMID 25512406; conditions: cited from earlier work
[8] = test system: C. albicans MY1055; assay: In vitro MIC, broth microdilution CLSI M27-A3; assay type: cell-based; conditions: Candida albicans, 50% inhibition of fungal growth at 24 h
Procedure: A disseminated Candida infection was induced in C′5-deficient DBA/2N mice (Taconic Farms, Germantown, NY), weighing on average 20 g, by i.v. inoculation with C. albicans MY1055 (Merck Culture Collection). C. albicans MY1055 was cultured on Sabouraud dextrose agar (SDA; BBL, Cockeysville, MD) plates at 35°C for 24 h. Yeast cells were washed from the surface of agar plates into sterile saline, and the cell concentrations were quantitated by using a hemocytometer. Viable cell counts were confirmed by a serial 10-fold dilution of the cell suspension and plating on SDA plates. Plates were incubated for 24 to 48 h at 35°C, whereupon the numbers of CFU were determined. The in vitro activity of SCY-078 against the MY1055 isolate was evaluated using broth microdilution assays as described in CLSI M27-A3 ([39]).

[9] = test system: C. albicans MY1055; assay: Single delayed-dose treatment model of disseminated candidiasis; conditions: single dose 16 h after infection, tissue burden 96 h after treatment, regression analysis
Procedure: Next, a single-dose treatment with SCY-078 was administered. The target endpoint for efficacy in this model was defined as a static effect on the tissue burden measured 96 h after treatment.
For the single delayed-dose treatment model, a single dose of SCY-078 was administered 16 h after infection. The target endpoint for efficacy in this model was a static effect on the tissue burden measured at 96 h posttreatment.

[10] = set-up: method as in ref 5 = [5]; 5. Trucksis M , Garrett G , Bautmans A , Heirman I , Laethem M , Comisar WA , Maganti L , Bi S , Iwamoto M , O'Mara E , Wagner JA , Depre M , de Hoon J 2011 A phase I multiple-rising dose study evalua; conditions: single- and multiple-dose phase 1 and 2 clinical studies ref 5; cited from earlier work
[11] = In vitro metabolic stability in hepatic microsomes; assay type: in vitro ADME, dog; conditions: for remaining at 0.5 h, 1 µM: read-out: % remaining after 30 min
Procedure: as §1, §2

[12] = Volume of distribution after i.v. administration; conditions: in vivo, iv, Rhesus monkey, no source reference printed, read-out: Vd ss
Source text: TABLE 7 Volume of distribution for SCY-078 and echinocandins after i.v. administration | column: Vd ss (liters/kg)^a / SCY-078

[13] = Solubility in simulated gastric and intestinal fluids; assay type: physicochemical; conditions: thermodynamic from solid, citrate salt form
Procedure: The solubility of SCY-078 was measured in simulated gastric fluid (SGF), fasted-state simulated intestinal fluid (FaSSIF), and fed-state intestinal fluid (FeSSIF) by Crystal Pharmatech (North Brunswick, NJ). In general, approximately 15 mg of solid was weighed into a 4-ml vial, 3.0 ml of medium was added, and the suspensions were stirred on a rolling incubator (25 rpm) at an ambient room temperature for 24 h. After incubation, 0.5 ml of suspension was centrifuged and filtered (0.45-μm pore size), and the concentration of SCY-078 was determined in the supernatant by high-pressure liquid chromatography (HPLC) with UV detection. The quantity of SCY-078 and the volume of medium was adjusted as required to determine the solubility in each medium.

[14] = In vitro metabolic stability in hepatic microsomes, rodent summary; assay type: in vitro ADME, mouse and rat
Procedure: as §1, §2

[15] = Biological distribution to kidney tissue after oral delivery; conditions: for Time to which concentrations would remain measurable in kidney: after dose 13, predicted from elimination rate constant
Procedure: Female CD-1 mice (n = 5/sex/time point/group) weighing approximately 25 g were administered SCY-078 by oral gavage either once daily or as multiple twice-per-day (Q12h) treatments, with individual doses ranging between 3 and 100 mg/kg (6 to 150 mg/kg/day). Mice also received a single 1-mg/ml i.v. dose of SCY-078. Plasma specimens were collected prior to dosing and at 0.25, 0.5, 1, 2, 4, 6, 9, 12, 18, 24, 36, 48, and 60 h after the single i.v. dose and at the same time points from 1 h postdose onward following oral dose 13 on day 7 of treatment. On the first day of oral treatment, plasma specimens were collected immediately before each of the two doses and 1, 2, 4, 6, 9, and 12 h postdosing. […] Kidney tissues were collected at 2, 4, 12, 24, 36, 48, and 60 h after oral dose 13 on treatment day 7, blotted dry, and stored at approximately −80°C until analysis.
On the day of analysis, either treatment-naive (drug-free) kidney tissue or freshly thawed tissue samples from PK studies were weighed and homogenized in 3 volumes of phosphate-buffered saline. The density of kidney tissue used for the determination of volume was assumed to be 1.0 g/ml.
Whole-kidney tissue samples were homogenized in parallel by means of a Precellys 24 bead mill homogenizer (Bertin Technologies, Montigny le Bretonneux, France) using 2-ml Precellys tubes containing 1.4-mm-diameter ceramic beads (CK14) and a single 15-s cycle of 5,500 rpm. Parallel bead homogenization increased throughput and avoided potential cross-contamination of samples since each sample was wholly contained and homogenized within its own sealed vial with no direct contact between the homogenizing instrument or other samples.
Mouse plasma (50 μl) or kidney tissue homogenate (50 μl) was treated with 5 volumes of acetonitrile containing 50 ng of deuterium (d9)-labeled SCY-078 internal standard/ml to precipitate proteins. Treated samples were mixed on a 96-well plate shaker for ∼30 min and then centrifuged at approximately 4,000 × g and 15°C for 15 min. Supernatants were transferred to fresh 96-well plates for analysis by LC-MS/MS.

[16] = both sexes, human, pooled liver microsomes, human (mixed) liver microsomes
[17] = pooled liver microsomes, male rat liver microsomes
[18] = Study A, 6.25 mg/kg p.o. BID, day 7
[19] = Study A, 12.5 mg/kg p.o. BID, day 7
[20] = Study A, Efficacious: projected assuming linearity
[21] = Study B, 6.25 mg/kg p.o. BID, day 7
[22] = Study B, 12.5 mg/kg p.o. BID, day 7
[23] = Study B, Efficacious: projected assuming linearity
[24] = Study C, 6.25 mg/kg p.o. BID, day 7
[25] = both sexes, pooled liver microsomes, dog liver microsomes, summary of male and female
[26] = pooled liver microsomes, female dog liver microsomes
[27] = pooled liver microsomes, male dog liver microsomes
[28] = kidney, 12 mg/kg oral, dose 13 day 7

In the case of CC(C)[C@@H](C)[C@@]1(C)CC[C@]2(C)[C@H]3CC[C@@H]4[C@@]5(COC[C@@]4(C)[C@@H](OC[C@](C)(N)C(C)(C)C)[C@H](n4ncnc4-c4ccncc4)C5)C3=CC[C@@]2(C)[C@@H]1C(=O)O [SCY-078, (1S,4aR,6aS,7R,8R,10aR,10bR,12aR,14R,15R)-15-[[(2R)-2-amino-2,3,3-trimethylbutyl]oxy]-8-[(1R)-1,2-dimethylpropyl]-14-[5-(4-pyridinyl)-1H-1,2,4-triazol-1-yl]-1,6,6a,7,8,9,10,10a,10b,11,12,12a-dodecahydro-1,6a,8,10a-tetramethyl-4H-1,4a-propano-2H-phenanthro[1,2-c]pyran-7-carboxylic acid], the half-life at 1 μM [1, 16] is reported as at least 0.7 h, the microsomal CLint at 1 μM [1, 16] is reported as 34 µL/min/mg and the remaining at 0.5 h, 1 µM ([1]; both sexes, pooled liver microsomes, human (mixed) liver microsomes) is reported as 61%. The CLint ([1]; human (mixed) liver microsomes) was 33 µL/min/mg, the remaining at 0.5 h, 1 µM ([1]; male rat liver microsomes) was 84% and the half-life at 1 μM [1, 17] was 2.08 h. For the same compound, the microsomal CLint at 1 μM [1, 17] was 11 µL/min/mg, the “Dose achieving stasis endpoint” value [2] was 9.93 mg/kg and the ED99 ([3]; 2 doses) was 9.83 mg/kg. The ED99 ([3]; 4 doses) was 6.93 mg/kg, the “90% effective dose (ED90)” value ([3]; divided, half doses (0 and 48 h)) was 4.40 mg/kg and the “90% effective dose (ED90)” value ([3]; divided, quarter doses (0, 24, 48, 72 h)) was 4.25 mg/kg. For the same compound, the “90% effective dose (ED90)” value ([3]; single dose) was 5.02 mg/kg, the ED99 ([3]; single dose) was 13.43 mg/kg and the “Dose achieving stasis endpoint” value [4] was 8.97 mg/kg. For the same compound, the Kidney tissue burden [5, 18] was 2.78 log10 CFU/g of tissue, the “Reduction from sham treatment” value [5, 18] was 3.69 log10 CFU/g of tissue and the “% animals sterilized” value ([5]; Study A, 6.25 mg/kg p.o. BID, day 7, five animals per group) was 40%. For the same compound, the Kidney tissue burden [5, 19] was 2.23 log10 CFU/g of tissue, the “Reduction from sham treatment” value [5, 19] was 4.24 log10 CFU/g of tissue and the “% animals sterilized” value ([5]; Study A, 12.5 mg/kg p.o. BID, day 7, five animals per group) was 80%. The “% animals sterilized” value [5, 20] was 60%, the Kidney tissue burden [5, 20] was 2.51 log10 CFU/g of tissue and the “Reduction from sham treatment” value [5, 20] was 4 log10 CFU/g of tissue. The Kidney tissue burden [5, 21] was 3.52 log10 CFU/g of tissue, the “Reduction from sham treatment” value [5, 21] was 3.35 log10 CFU/g of tissue and the “% animals sterilized” value ([5]; Study B, 6.25 mg/kg p.o. BID, day 7, five animals per group) was 0%. For the same compound, the Kidney tissue burden [5, 22] was 2.2 log10 CFU/g of tissue, the “Reduction from sham treatment” value [5, 22] was 4.67 log10 CFU/g of tissue and the “% animals sterilized” value ([5]; Study B, 12.5 mg/kg p.o. BID, day 7, five animals per group) was 100%. For the same compound, the “% animals sterilized” value [5, 23] was 50%, the Kidney tissue burden [5, 23] was 2.86 log10 CFU/g of tissue and the “Reduction from sham treatment” value [5, 23] was 4.01 log10 CFU/g of tissue. The Kidney tissue burden [5, 24] was 2.61 log10 CFU/g of tissue, the “Reduction from sham treatment” value [5, 24] was 4.35 log10 CFU/g of tissue and the “% animals sterilized” value ([5]; Study C, 6.25 mg/kg p.o. BID, day 7, five animals per group) was 60%. For the same compound, the “Free-drug (f) AUC0–24” value ([5]; efficacy target, fraction bound 99.8% in mouse plasma) was 0.0224 ± 0.0032 µg·h/mL, the “Mean therapeutic exposure (plasma AUC0–24) across all models” value ([5]; mean of immediate-treatment, delayed-single-dose and delayed-fractionated-dose models) was 14.3 µM·h and the AUC(0-t) ([6]; 6.25 mg/kg, Plasma AUC0–24, Study A, 6.25 mg/kg p.o. BID, after dose 13 day 7) was 6190 ng·h/mL and 8.48 µM·h. For the same compound, the AUC(0-t) ([6]; 6.25 mg/kg, Plasma AUC0–24, Study B, 6.25 mg/kg p.o. BID, after dose 13 day 7) was 3270 ng·h/mL and 4.48 µM·h, the AUC(0-t) ([6]; 6.25 mg/kg, Plasma AUC0–24, Study C, 6.25 mg/kg p.o. BID, after dose 13 day 7) was 11000 ng·h/mL and 15.1 µM·h and the AUC(0-t) ([6]; 12.5 mg/kg, Plasma AUC0–24, Study A, 12.5 mg/kg p.o. BID, after dose 13 day 7) was 19700 ng·h/mL and 27 µM·h. The AUC(0-t) ([6]; 12.5 mg/kg, Plasma AUC0–24, Study B, 12.5 mg/kg p.o. BID, after dose 13 day 7) was 16200 ng·h/mL and 22.2 µM·h, the AUC(0-t) ([6]; Plasma AUC0–24, Study A, Efficacious: projected efficacious exposure assuming linearity) was 12900 ng·h/mL and 17.7 µM·h and the AUC(0-t) ([6]; Plasma AUC0–24, Study B, Efficacious: projected efficacious exposure assuming linearity) was 9710 ng·h/mL and 13.3 µM·h. For the same compound, the MIC [7] was 0.25 µg/mL (≈ 0.342 µM), the MIC [8] was 0.03 µg/mL (≈ 0.0411 µM) and the “Dose achieving stasis endpoint” value [9] was 10.28 mg/kg. The Tolerability [10] was “well tolerated”, the half-life at 1 μM [11, 25] was at least 0.483 h and the microsomal CLint at 1 μM [11, 25] was at most 48 µL/min/mg. The CLint scaled at 1 μM ([11]; both sexes, pooled liver microsomes, dog liver microsomes, summary of male and female, read-out: CL′int (CLint scaled to in vivo intrinsic clearance)) was at most 4.14 mL/h/kg, the remaining at 0.5 h, 1 µM ([11]; female dog liver microsomes) was 84% and the remaining at 0.5 h, 1 µM ([11]; male dog liver microsomes) was 49%. For the same compound, the half-life at 1 μM [11, 26] was 1.53 h, the microsomal CLint at 1 μM [11, 26] was 15 µL/min/mg and the half-life at 1 μM [11, 27] was 0.483 h. It also gave a microsomal CLint at 1 μM [11, 27] of 48 µL/min/mg, a Vd [12] of 4.4 L/kg and a solubility at 24 h ([13]; fasted-state simulated intestinal fluid (FaSSIF), FaSSIF) of over 4.2 mg/mL. It also gave a solubility at 24 h ([13]; fed-state simulated intestinal fluid (FeSSIF), FeSSIF) of over 20 mg/mL, a solubility at 24 h ([13]; simulated gastric fluid (SGF), simulated gastric fluid, SGF) of over 20 mg/mL and a half-life at 1 μM ([14]; both (mouse), male (rat), pooled liver microsomes, rodent liver microsomes) of at least 2.08 h. The CLint scaled at 1 μM ([14]; both (mouse), male (rat), pooled liver microsomes, rodent liver microsomes, read-out: CL′int (CLint scaled to in vivo intrinsic clearance)) was under 2.4 mL/h/kg, the microsomal CLint at 1 μM ([14]; both (mouse), male (rat), pooled liver microsomes, rodents (mouse and rat) liver microsomes) was at most 11 µL/min/mg and the remaining at 0.5 h, 1 µM ([14]; both sexes, mouse, rat, liver microsomes, rodent microsomes, read-out: % remaining after 30 min) was about 85%. The “Time to which concentrations would remain measurable in kidney” value ([15]; 6.25 mg/kg) was “approximately 100 h”, the “Time to which concentrations would remain measurable in kidney” value ([15]; 12 mg/kg) was about 115 h and the “AUC0–24” value ([15]; kidney, 6.25 mg/kg oral, dose 13 day 7) was 195 µg·h/mL. For the same compound, the “AUC0–24” value [15, 28] was 553 µg·h/mL and the half-life [15, 28] was 8.6 h.
